Where a SMILES comes first, the peptide text is derived from it. Side-chain parts run from the residue outwards. [ ]: non-standard residue; d: D form. The star is where a group is joined. Shikimoyl = O=C(C1=C[C@@H](O)[C@@H](O)[C@H](O)C1)*; Biotin = O=C1N[C@H]2[C@H](CS[C@H]2CCCCC(=O)*)N1; dPhe(4-Cl) = N[C@H](Cc1ccc(Cl)cc1)C(=O)O; d2Nal = N[C@H](Cc1ccc2ccccc2c1)C(=O)O; Acetyl(3-pyridyl) = O=C(Cc1cccnc1)*; Lys(iPr) = CC(C)NCCCC[C@H](N)C(=O)O; NMeY = CN[C@@H](Cc1ccc(O)cc1)C(=O)O; d3Pal = N[C@H](Cc1cccnc1)C(=O)O; Nicotinoyl = O=C(c1cccnc1)*; Picolinoyl = O=C(c1ccccn1)*; dOrn = NCCC[C@@H](N)C(=O)O; Ahx = NCCCCCC(=O)O; X2 = O=C(c1ccoc1)*; GABA = NCCCC(=O)O; azaGly = NNC(=O)O; βAla = NCCC(=O)O
Target: T1, LHRH receptor (Rattus norvegicus, UniProt P30969)
T1 construct: endogenous in cells
T1 sequence (P30969 1-327): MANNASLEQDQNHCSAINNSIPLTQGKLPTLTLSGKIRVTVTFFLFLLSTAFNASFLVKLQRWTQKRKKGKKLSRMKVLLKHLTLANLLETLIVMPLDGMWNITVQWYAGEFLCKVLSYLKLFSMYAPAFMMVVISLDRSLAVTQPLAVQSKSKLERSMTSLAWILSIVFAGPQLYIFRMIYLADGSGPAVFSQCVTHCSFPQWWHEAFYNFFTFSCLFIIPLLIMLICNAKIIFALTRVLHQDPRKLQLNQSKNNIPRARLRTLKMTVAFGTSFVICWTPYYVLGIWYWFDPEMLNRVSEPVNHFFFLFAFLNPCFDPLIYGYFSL
Experiment: in vitro LHRH antagonist potency (pA2) against the agonist leuprolide
Assay type: cell-based
Details: negative logarithm of the antagonist concentration which shifts the response curve produced by the agonist leuprolide to two-fold higher concentration
Summary of the method: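 Functional antagonism against the agonist leuprolide. pA2 is the negative log of antagonist concentration that shifts the leuprolide response curve to twofold higher concentration.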

Work on CC(=O)N[C@H](Cc1ccc2ccccc2c1)C(=O)N[C@H](Cc1ccc(Cl)cc1)C(=O)N[C@H](Cc1cccnc1)C(=O)N[C@@H](CO)C(=O)N(C)[C@@H](Cc1ccc(O)cc1)C(=O)N[C@H](CCCCNC(=O)CCNC(=O)NNC(=O)c1cccnc1)C(=O)N[C@@H](CC(C)C)C(=O)N[C@@H](CCCCNC(C)C)C(=O)N1CCC[C@H]1C(=O)N[C@H](C)C(N)=O [Example 25a, NAc-D2Nal^1 -D4ClPhe^2 -D3Pal^3 -Ser^4 -NMeTyr^5 -DLys[N-epsilon-(beta-Alanyl)-Azagly-Nicotinyl]^6 -Leu^7 -Lys(N-epsilon-Isopropyl)^8 -Pro^9 -DAla^10 NH2] (Ac-[d2Nal][dPhe(4-Cl)][d3Pal]S[NMeY][dK]([βAla-azaGly-Nicotinoyl])L[Lys(iPr)]P[dA]-NH2) yielded a Kb of 0.0363 nM.

Molecule CC(=O)N[C@H](Cc1ccc2ccccc2c1)C(=O)N[C@H](Cc1ccc(Cl)cc1)C(=O)N[C@H](Cc1cccnc1)C(=O)N[C@@H](CO)C(=O)N(C)[C@@H](Cc1ccc(O)cc1)C(=O)N[C@H](CCCCNC(=O)[C@@H](CO)NC(=O)CNC(=O)C1=C[C@@H](O)[C@@H](O)[C@H](O)C1)C(=O)N[C@@H](CC(C)C)C(=O)N[C@@H](CCCNC(=N)N)C(=O)N1CCC[C@H]1C(=O)N[C@H](C)C(N)=O [Example 48j, NAc-D2Nal^1 -D4ClPhe^2 -D3Pal^3 -Ser^4 -NMeTyr^5 -DLys(N-epsilon-D-Ser-Gly-Shikimyl)^6 -Leu^7 -Arg^8 -Pro^9 -DAla^10 NH2] (Ac-[d2Nal][dPhe(4-Cl)][d3Pal]S[NMeY][dK]([dS-Gly-Shikimoyl])LRP[dA]-NH2) has a Kb of 0.017 nM.

With CC(=O)N[C@H](Cc1ccc2ccccc2c1)C(=O)N[C@H](Cc1ccc(Cl)cc1)C(=O)N[C@H](Cc1cccnc1)C(=O)N[C@@H](CO)C(=O)N(C)[C@@H](Cc1ccc(O)cc1)C(=O)N[C@H](CCCCNC(=O)CNC(=O)Cc1cccnc1)C(=O)N[C@@H](CC(C)C)C(=O)N[C@@H](CCCNC(=N)N)C(=O)N1CCC[C@H]1C(=O)N[C@H](C)C(N)=O [Example 65c, NAc-D2Nal^1 -D4ClPhe^2 -D3Pal^3 -Ser^4 -NMeTyr^5 -DLys(N-epsilon-Gly-3Pyridylacetyl)^6 -Leu^7 -Arg^8 -Pro^9 -DAla^10 NH2] (Ac-[d2Nal][dPhe(4-Cl)][d3Pal]S[NMeY][dK]([Gly-Acetyl(3-pyridyl)])LRP[dA]-NH2) the Kb was 0.0288 nM.

CC(=O)N[C@H](Cc1ccc2ccccc2c1)C(=O)N[C@H](Cc1ccc(Cl)cc1)C(=O)N[C@H](Cc1cccnc1)C(=O)N[C@@H](CO)C(=O)N(C)[C@@H](Cc1ccc(O)cc1)C(=O)N[C@H](CCCCNC(=O)CNC(=O)CCCC[C@@H]1SC[C@@H]2NC(=O)N[C@@H]21)C(=O)N[C@@H](CC(C)C)C(=O)N[C@@H](CCCCNC(C)C)C(=O)N1CCC[C@H]1C(=O)N[C@H](C)C(N)=O [Example 64, NAc-D2Nal^1 -D4ClPhe^2 -D3Pal^3 -Ser^4 -NMeTyr^5 -DLys(N-epsilon-Gly-Biotinyl)^6 -Leu^7 -Lys(N-epsilon-isopropyl)^8 -Pro^9 -DAla^10 NH2] (Ac-[d2Nal][dPhe(4-Cl)][d3Pal]S[NMeY][dK]([Gly-Biotin])L[Lys(iPr)]P[dA]-NH2) gave a Kb of 0.0115 nM.

For CC(=O)N[C@H](CO)C(=O)NCCCC[C@@H](NC(=O)[C@H](Cc1ccc(O)cc1)N(C)C(=O)[C@H](CO)NC(=O)[C@@H](Cc1cccnc1)NC(=O)[C@@H](Cc1ccc(Cl)cc1)NC(=O)[C@@H](Cc1ccc2ccccc2c1)NC(C)=O)C(=O)N[C@@H](CC(C)C)C(=O)N[C@@H](CCCNC(=N)N)C(=O)N1CCC[C@H]1C(=O)N[C@H](C)C(N)=O [Example 8, NAc-D2Nal^1 -D4ClPhe^2 -D3Pal^3 -Ser^4 -NMeTyr^5 -DLys(N-epsilon-DSer-Acetyl)^6 -Leu^7 -Arg^8 -Pro^9 -DAla^10 NH2] (Ac-[d2Nal][dPhe(4-Cl)][d3Pal]S[NMeY][dK]([dS-Ac])LRP[dA]-NH2), the Kb was 0.00794 nM.

Molecule CC(=O)N[C@H](Cc1ccc2ccccc2c1)C(=O)N[C@H](Cc1ccc(Cl)cc1)C(=O)N[C@H](Cc1cccnc1)C(=O)N[C@@H](CO)C(=O)N(C)[C@@H](Cc1ccc(O)cc1)C(=O)N[C@H](CCCCNC(=O)CCCNC(=O)c1cccnc1)C(=O)N[C@@H](CC(C)C)C(=O)N[C@@H](CCCCNC(C)C)C(=O)N1CCC[C@H]1C(=O)N[C@H](C)C(N)=O [Example 4b, NAc-D2Nal^1 -D4ClPhe^2 -D3Pal^3 -Ser^4 -NMeTyr^5 -DLys[N-epsilon-(gamma-Aminobutyryl)Nicotinyl]^6 -Leu^7 -Lys(N-epsilon-Isopropyl)^8 -Pro^9 -DAla^10 NH2] (Ac-[d2Nal][dPhe(4-Cl)][d3Pal]S[NMeY][dK]([GABA-Nicotinoyl])L[Lys(iPr)]P[dA]-NH2) has a Kb of 0.0234 nM.

With CC(=O)N[C@H](Cc1ccc2ccccc2c1)C(=O)N[C@H](Cc1ccc(Cl)cc1)C(=O)N[C@H](Cc1cccnc1)C(=O)N[C@@H](CO)C(=O)N(C)[C@@H](Cc1ccc(O)cc1)C(=O)N[C@H](CCCCNC(=O)CCCCCNC(=O)c1cccnc1)C(=O)N[C@@H](CC(C)C)C(=O)N[C@@H](CCCCNC(C)C)C(=O)N1CCC[C@H]1C(=O)N[C@H](C)C(N)=O [Example 4e, NAc-D2Nal^1 -D4ClPhe^2 -D3Pal^3 -Ser^4 -NMeTyr^5 -DLys[N-epsilon-(N-epsilon-aminocaproyl)-Nicotinyl]^6 -Leu^7 -Lys(N-epsilon-Isopropyl)^8 -Pro^9 -DAla^10 NH2] (Ac-[d2Nal][dPhe(4-Cl)][d3Pal]S[NMeY][dK]([Ahx-Nicotinoyl])L[Lys(iPr)]P[dA]-NH2) the Kb was 0.0339 nM.

Work on CC(=O)N[C@H](Cc1ccc2ccccc2c1)C(=O)N[C@H](Cc1ccc(Cl)cc1)C(=O)N[C@H](Cc1cccnc1)C(=O)N[C@@H](CO)C(=O)N(C)[C@@H](Cc1ccc(O)cc1)C(=O)N[C@H](CCCCNC(=O)CNC(=O)c1ccoc1)C(=O)N[C@@H](CC(C)C)C(=O)N[C@@H](CCCNC(=N)N)C(=O)N1CCC[C@H]1C(=O)N[C@H](C)C(N)=O [Example 51a, NAc-D2Nal^1 -D4ClPhe^2 -D3Pal^3 -Ser^4 -NMeTyr^5 -DLys(N-epsilon-Gly-3-Furoyl)^6 -Leu^7 -Arg^8 -Pro^9 -DAla^1 -NH2] (Ac-[d2Nal][dPhe(4-Cl)][d3Pal]S[NMeY][dK]([Gly-X2])LRP[dA]-NH2) yielded a Kb of 0.011 nM.

In the case of CC(=O)N[C@H](Cc1ccc2ccccc2c1)C(=O)N[C@H](Cc1ccc(Cl)cc1)C(=O)N[C@H](Cc1cccnc1)C(=O)N[C@@H](CO)C(=O)N(C)[C@@H](Cc1ccc(O)cc1)C(=O)N[C@H](CCCCNC(=O)[C@@H](CO)NC(=O)c1ccccn1)C(=O)N[C@@H](CC(C)C)C(=O)N[C@@H](CCCNC(=N)N)C(=O)N1CCC[C@H]1C(=O)N[C@H](C)C(N)=O [Example 48b, NAc-D2Nal^1 -D4ClPhe^2 -D3Pal^3 -Ser^4 -NMeTyr^5 -DLys(N-epsilon-D-Ser-Picolinyl)^6 -Leu^7 -Arg^8 -Pro^9 -DAla^10 NH2] (Ac-[d2Nal][dPhe(4-Cl)][d3Pal]S[NMeY][dK]([dS-Picolinoyl])LRP[dA]-NH2), the Kb is reported as 0.0372 nM.

With CC(=O)N[C@H](Cc1ccc2ccccc2c1)C(=O)N[C@H](Cc1ccc(Cl)cc1)C(=O)N[C@H](Cc1cccnc1)C(=O)N[C@@H](CO)C(=O)N(C)[C@@H](Cc1ccc(O)cc1)C(=O)N[C@H](CCCNC(=O)[C@@H](CO)NC(=O)C1=C[C@@H](O)[C@@H](O)[C@H](O)C1)C(=O)N[C@@H](CC(C)C)C(=O)N[C@@H](CCCNC(=N)N)C(=O)N1CCC[C@H]1C(=O)N[C@H](C)C(N)=O [Example 49d, NAc-D2Nal^1 -D4ClPhe^2 -D3Pal^3 -Ser^4 -NMeTyr^5 -DOrn(N-epsilon-DSer-Shikimyl)^6 -Leu^7 -Arg^8 -Pro^9 -DAla^10 NH2] (Ac-[d2Nal][dPhe(4-Cl)][d3Pal]S[NMeY][dOrn]([dS-Shikimoyl])LRP[dA]-NH2) the Kb was 0.00166 nM.

From patent publication US5698522A, “6-position modified decapeptide LHRH antagonists” (Abbott Laboratories, priority 1995, dated 1997)
